From ChEMBL document CHEMBL3507680, “University of Dundee, Gates Library screen for HepG2 cell viability”

Assay: Human HepG2 cell viability assay in 384 well format
Format: toxicity, cell-based
Parameters: dose 125 nL, time 70.5 hour; concentration not given beside the values
Settings: HepG2 cells, read-out: Inhibition

| SMILES | cytotoxicity at 70.5 h [%] |
| --- | --- |
| Cn1ncc2c1NC(=O)CC2c1cc2c(cc1Cl)OCO2 (centres undefined) | 17.7 |
| Cc1nc(CN2CCC3(CCCO3)CCC2=O)no1 (centres undefined) | -3.41 |
| CN(CCc1cn[nH]c1)Cc1nc(Cc2cccc(C(F)(F)F)c2)no1 | 3.03 |
| Cc1ccc(Oc2ncccc2CNC2CCOCC2)cn1 | -7.51 |
| C[C@@H]1CN(c2ccc(Cl)cn2)C[C@@]1(O)C1CC1 | -3.66 |
| Cc1n[nH]c(C)c1CCC(=O)NCC1CCOc2ccccc2C1 (centres undefined) | 12.2 |
| O=C(NCC1COCCO1)c1csc(Cc2ccccc2)n1 (centres undefined) | -4.7 |
| Cn1ncc2c(NC3CCCN(C(=O)C4CC4)C3)nc(C(C)(C)C)nc21 (centres undefined) | 2.96 |
| Cc1ccc(C(=O)N(Cc2cccnc2)C[C@@H]2CCC(=O)N2)s1 | 28 |
| CO[C@H]1[C@@H]2CC[C@H]1CN(c1nc(C)nc3sccc13)C2 | 6.45 |
| COc1cccc2c1OCC(C(=O)N1Cc3ccccc3C1)C2 (centres undefined) | -1.1 |
| CCCc1cc(CN(C)C2CSCCSC2)n[nH]1 | -6.5 |
| CN(C)C(=O)CCN1CC(c2ccccc2)(c2ccccc2)CCC1=O | 4.06 |
| COCc1noc(-c2ccc(N(C)Cc3nccs3)nc2)n1 | -6.18 |
| O=C1CC2(CCN(C(=O)c3cccc(Cl)c3)CC2)CN1 | -7.17 |
| CCC(=O)N1CCN(S(=O)(=O)c2cccc(F)c2)[C@H]2CS(=O)(=O)C[C@H]21 | -13.7 |
| Cc1cccc(C2CCCN(C(=O)CN3CCOC3=O)C2)c1 (centres undefined) | -17.6 |
| CNc1ccnc(N(C)Cc2cc(-c3cccs3)n[nH]2)n1 | 32.5 |
| CC1=CC[C@@H]2CN(C(=O)c3ccc(-c4cc[nH]n4)cc3)C[C@@H]2C1 | 0.519 |
| CCCn1ccnc1CN1CC[C@@H](NC(=O)c2cccnc2)[C@H](O)C1 | -16.3 |
| COc1ccc(C(O)C(=O)N2CCC(c3nccn3C(C)C)CC2)cc1 (centres undefined) | 28.1 |
| CCN(Cc1ccccc1)C(=O)CCN1CC(O)C1 | -16.3 |

| SMILES | cytotoxicity at 70.5 h [%] |
| --- | --- |
| CNCc1cn(CC2CCN(Cc3cccs3)CC2)nn1 | 22.5 |
| CN1CCC(N(C)CCC(=O)N2CCC(OCc3ccccc3)CC2)C1 (centres undefined) | 29.2 |
| CCOCC(=O)N1CCC(c2nc(-c3cccnn3)no2)CC1 | -11.6 |
| Cc1nc(CN(C)CC2CCCN(CCc3ccc(Cl)cc3)C2)no1 (centres undefined) | 0.0181 |
| CC(C)n1cc(CN(C)C[C@@H]2CCCN3CCCC[C@H]23)cn1 | -6.94 |
| COCCN1C(=O)[C@H]2CC[C@@H]1CN(C(=O)COc1ccc(F)c(Cl)c1)C2 | -9.65 |
| CCCc1cc(NCc2nc(COC)no2)n2nccc2n1 | -0.144 |
| CCC(CO)N(Cc1ccsc1)Cc1cccc(O)c1 (centres undefined) | -0.682 |
| NC(=O)CCC1CCCN(Cc2cnc(N3CCCCC3)nc2)C1 (centres undefined) | -3.37 |
| CC(CO)Nc1ccc(-c2nc(Cc3ccc(F)cc3)no2)cn1 (centres undefined) | -2.07 |
| Cc1cc(CC(=O)N2CCN(C)[C@@H]3CS(=O)(=O)C[C@@H]32)ccc1F | -4.31 |
| Cc1cc(C)n(CCCN(C)Cc2cn[nH]c2-c2ccc(F)cc2)n1 | -9.49 |
| COc1ccc(C(=O)NCc2cccnc2N2CCOCC2)o1 | -0.423 |
| O=C(O)c1cc2n(n1)CCCN(C(=O)CCc1c[nH]c3ccccc13)C2 | -16.4 |
| CC(=O)c1cc(CN2CCCC23CCN(c2ccccn2)CC3)cs1 | -19.2 |
| Cc1cc(C2CCC2)nc(NCC(C)(C)N2CCCC2)n1 | -16.9 |
| COc1cccc2c1OCC(CNC(=O)Cn1ccnc1C)C2 (centres undefined) | -0.227 |
| C/C=C(\C)CN1C[C@H](NC(=O)c2cc[nH]c2C)[C@@H](C2CC2)C1 | 10.6 |
| CC(C)n1cc(CN(Cc2ccsc2)CC2CCCO2)cn1 (centres undefined) | -1.43 |
| Cc1nc(O)cc(CN2C[C@H](NS(=O)(=O)N(C)C)[C@@H](C3CC3)C2)n1 | -3.51 |
| CNc1cc(C(=O)N2CCC3(CC2)Nc2ccccc2NC3=O)ccn1 | -4.39 |
| O=C(NCCc1ccc(Cl)cc1)c1coc(CN2CCOCC2)c1 | -5.77 |
